Source: patent publication EP0584797A2, “Novel cephalosporin compounds and processes for the preparation thereof” (LUCKY LTD., priority 1992, dated 1994)
In brackets after ≈: the same amount, converted by molar mass.

What was measured:
Assay in all cases: minimal inhibitory concentration, two-fold agar dilution
Assay type in all cases: cell-based
[1] = test system: Acinetobacter calcoaceticus ATCC 15437; conditions: ATCC15437, Muller-Hinton agar, 37°C, 20 hours, read-out: MIC values against the standard strains
How it was run: (§1)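 Compounds were serially diluted two-fold into Mueller-Hinton agar, and each plate was spot-inoculated with the test strain at 10⁷ CFU per ml. Plates were incubated at 37°C for 20 hours before MIC values were read.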

[2] = test system: Bacillus cereus ATCC 11778; conditions: ATCC11778, Muller-Hinton agar, 37°C, 20 hours, read-out: MIC values against the standard strains
How it was run: as §1

[3] = test system: Bacillus megaterium ATCC 9885; conditions: Priestia megaterium, ATCC9885; Muller-Hinton agar; 37°C; 20 hours; read-out: MIC values against the standard strains
How it was run: as §1

[4] = test system: Citrobacter freundii ATCC 8090; conditions: ATCC8090, Muller-Hinton agar, 37°C, 20 hours, read-out: MIC values against the standard strains
How it was run: as §1

[5] = test system: Enterobacter aerogenes ATCC 29751; conditions: Klebsiella aerogenes, ATCC29751; Muller-Hinton agar; 37°C; 20 hours; read-out: MIC values against the standard strains
How it was run: as §1

[6] = test system: Enterobacter cloacae ATCC 27508; conditions: ATCC27508, Muller-Hinton agar, 37°C, 20 hours, read-out: MIC values against the standard strains
How it was run: as §1

[7] = test system: Escherichia coli ATCC 10536; conditions: ATCC10536, Muller-Hinton agar, 37°C, 20 hours, read-out: MIC values against the standard strains
How it was run: as §1

[8] = test system: Escherichia coli ATCC 25922; conditions: ATCC25922, Muller-Hinton agar, 37°C, 20 hours, read-out: MIC values against the standard strains
How it was run: as §1

[9] = test system: Klebsiella pneumoniae ATCC 10031; conditions: ATCC10031, Muller-Hinton agar, 37°C, 20 hours, read-out: MIC values against the standard strains
How it was run: as §1

[10] = test system: Micrococcus luteus ATCC 9341; conditions: ATCC9341, Muller-Hinton agar, 37°C, 20 hours, read-out: MIC values against the standard strains
How it was run: as §1

[11] = test system: Morganella morganii ATCC 8076h; conditions: ATCC8076H, Muller-Hinton agar, 37°C, 20 hours, read-out: MIC values against the standard strains
How it was run: as §1

[12] = test system: Proteus mirabilis ATCC 25933; conditions: ATCC25933, Muller-Hinton agar, 37°C, 20 hours, read-out: MIC values against the standard strains
How it was run: as §1

[13] = test system: Proteus vulgaris ATCC 6059; conditions: ATCC6059, Muller-Hinton agar, 37°C, 20 hours, read-out: MIC values against the standard strains
How it was run: as §1

[14] = test system: Providencia rettgeri ATCC 9250; conditions: ATCC9250, Muller-Hinton agar, 37°C, 20 hours, read-out: MIC values against the standard strains
How it was run: as §1

[15] = test system: Pseudomonas aeruginosa ATCC 10145; conditions: ATCC10145, Muller-Hinton agar, 37°C, 20 hours, read-out: MIC values against the standard strains
How it was run: as §1

[16] = test system: Pseudomonas aeruginosa ATCC 25619; conditions: ATCC25619, Muller-Hinton agar, 37°C, 20 hours, read-out: MIC values against the standard strains
How it was run: as §1

[17] = test system: Pseudomonas aeruginosa ATCC 27853; conditions: ATCC27853, Muller-Hinton agar, 37°C, 20 hours, read-out: MIC values against the standard strains
How it was run: as §1

[18] = test system: Salmonella typhimurium ATCC 14028; conditions: Salmonella enterica; Muller-Hinton agar; 37°C; 20 hours; read-out: MIC values against the standard strains
How it was run: as §1

[19] = test system: Serratia marcescens ATCC 27117; conditions: ATCC27117, Muller-Hinton agar, 37°C, 20 hours, read-out: MIC values against the standard strains
How it was run: as §1

[20] = test system: Shigella flexneri ATCC 11836; conditions: ATCC11836, Muller-Hinton agar, 37°C, 20 hours, read-out: MIC values against the standard strains
How it was run: as §1

[21] = test system: Shigella sonnei ATCC 11060; conditions: ATCC11060, Muller-Hinton agar, 37°C, 20 hours, read-out: MIC values against the standard strains
How it was run: as §1

[22] = test system: Staphylococcus aureus ATCC 10537; conditions: ATCC10537, Muller-Hinton agar, 37°C, 20 hours, read-out: MIC values against the standard strains
How it was run: as §1

[23] = test system: Staphylococcus aureus ATCC 6538p; conditions: ATCC6538P, Muller-Hinton agar, 37°C, 20 hours, read-out: MIC values against the standard strains
How it was run: as §1

[24] = test system: Staphylococcus epidermidis ATCC 12228; conditions: ATCC12228, Muller-Hinton agar, 37°C, 20 hours, read-out: MIC values against the standard strains
How it was run: as §1

[25] = test system: Streptococcus faecalis ATCC 29212; conditions: Enterococcus faecalis, ATCC29212; Muller-Hinton agar; 37°C; 20 hours; read-out: MIC values against the standard strains
How it was run: as §1

CO/N=C(\C(=O)N[C@@H]1C(=O)N2C(C(=O)[O-])=C(CSc3nc(N)c(N)c(N)[n+]3C)CS[C@H]12)c1csc(N)n1 [Example 7, 7-[(Z)-2-(2-aminothiazol-4-yl)-2-(methoxyimino)acetamido]-3-(4,5,6-triamino-1-methylpyrimidinium-2-yl)thiomethyl-3-cephem-4-carboxylate]
MIC [1]: 4 µg/mL (≈ 7.06 µM)
MIC [2]: 16 µg/mL (≈ 28.2 µM)
MIC [3]: 0.13 µg/mL (≈ 0.229 µM)
MIC [4]: 0.063 µg/mL (≈ 0.111 µM)
MIC [5]: ≤ 0.008 µg/mL
MIC [6]: 0.063 µg/mL (≈ 0.111 µM)
MIC [7]: 0.063 µg/mL (≈ 0.111 µM)
MIC [8]: 0.063 µg/mL (≈ 0.111 µM)
MIC [9]: 0.016 µg/mL (≈ 0.0282 µM)
MIC [10]: 0.063 µg/mL (≈ 0.111 µM)
MIC [11]: ≤ 0.008 µg/mL
MIC [12]: 0.13 µg/mL (≈ 0.229 µM)
MIC [13]: 0.13 µg/mL (≈ 0.229 µM)
MIC [14]: ≤ 0.008 µg/mL
MIC [15]: 32 µg/mL (≈ 56.5 µM)
MIC [16]: 4 µg/mL (≈ 7.06 µM)
MIC [17]: 32 µg/mL (≈ 56.5 µM)
MIC [18]: 0.13 µg/mL (≈ 0.229 µM)
MIC [19]: 0.13 µg/mL (≈ 0.229 µM)
MIC [20]: 0.031 µg/mL (≈ 0.0547 µM)
MIC [21]: 0.13 µg/mL (≈ 0.229 µM)
MIC [22]: 0.13 µg/mL (≈ 0.229 µM)
MIC [23]: 0.13 µg/mL (≈ 0.229 µM)
MIC [24]: 0.13 µg/mL (≈ 0.229 µM)
MIC [25]: 128 µg/mL (≈ 226 µM)

C[n+]1ccc(N)nc1SCC1=C(C(=O)[O-])N2C(=O)[C@@H](NC(=O)/C(=N\OC(C)(C)C(=O)O)c3csc(N)n3)[C@H]2SC1 [Example 2, 7-[(Z)-2-(aminothiazol-4-yl)-2-(carboxyprop-2-oxyimino)acetamido]-3-(4-amino-1-methylpyrimidinium-2-yl)thiomethyl-3-cephem-4-carboxylate]
MIC [1]: 4 µg/mL (≈ 6.57 µM)
MIC [2]: 64 µg/mL (≈ 105 µM)
MIC [3]: 0.25 µg/mL (≈ 0.411 µM)
MIC [4]: 0.031 µg/mL (≈ 0.0509 µM)
MIC [5]: 1 µg/mL (≈ 1.64 µM)
MIC [6]: ≤ 0.008 µg/mL
MIC [7]: 0.031 µg/mL (≈ 0.0509 µM)
MIC [8]: 0.031 µg/mL (≈ 0.0509 µM)
MIC [9]: 0.031 µg/mL (≈ 0.0509 µM)
MIC [10]: 0.25 µg/mL (≈ 0.411 µM)
MIC [11]: ≤ 0.008 µg/mL
MIC [12]: 0.031 µg/mL (≈ 0.0509 µM)
MIC [13]: 0.063 µg/mL (≈ 0.104 µM)
MIC [14]: ≤ 0.008 µg/mL
MIC [15]: 2 µg/mL (≈ 3.29 µM)
MIC [16]: 1 µg/mL (≈ 1.64 µM)
MIC [17]: 1 µg/mL (≈ 1.64 µM)
MIC [18]: 0.13 µg/mL (≈ 0.214 µM)
MIC [19]: 0.063 µg/mL (≈ 0.104 µM)
MIC [20]: 0.016 µg/mL (≈ 0.0263 µM)
MIC [21]: 0.063 µg/mL (≈ 0.104 µM)
MIC [22]: 2 µg/mL (≈ 3.29 µM)
MIC [23]: 4 µg/mL (≈ 6.57 µM)
MIC [24]: 2 µg/mL (≈ 3.29 µM)
MIC [25]: > 128 µg/mL

CCO/N=C(\C(=O)N[C@@H]1C(=O)N2C(C(=O)[O-])=C(CSc3nc(N)cc[n+]3CC)CS[C@H]12)c1nsc(N)n1 [Example 16, 7-[(Z)-2-(5-amino-1,2,4-thiadiazol-3-yl)-2-(ethoxyimino)acetamido]-3-(4-amino-1-ethylpyrimidinium-2-yl)thiomethyl-3-cephem-4-carboxylate]
MIC [1]: 8 µg/mL (≈ 14.1 µM)
MIC [2]: 64 µg/mL (≈ 113 µM)
MIC [3]: 0.5 µg/mL (≈ 0.884 µM)
MIC [4]: 0.5 µg/mL (≈ 0.884 µM)
MIC [5]: 0.063 µg/mL (≈ 0.111 µM)
MIC [6]: 0.063 µg/mL (≈ 0.111 µM)
MIC [7]: 0.031 µg/mL (≈ 0.0548 µM)
MIC [8]: 0.031 µg/mL (≈ 0.0548 µM)
MIC [9]: 0.016 µg/mL (≈ 0.0283 µM)
MIC [10]: 0.5 µg/mL (≈ 0.884 µM)
MIC [11]: 0.031 µg/mL (≈ 0.0548 µM)
MIC [12]: 2 µg/mL (≈ 3.54 µM)
MIC [13]: 2 µg/mL (≈ 3.54 µM)
MIC [14]: 0.031 µg/mL (≈ 0.0548 µM)
MIC [15]: 16 µg/mL (≈ 28.3 µM)
MIC [16]: 2 µg/mL (≈ 3.54 µM)
MIC [17]: 4 µg/mL (≈ 7.07 µM)
MIC [18]: 1 µg/mL (≈ 1.77 µM)
MIC [19]: 1 µg/mL (≈ 1.77 µM)
MIC [20]: 0.5 µg/mL (≈ 0.884 µM)
MIC [21]: 0.5 µg/mL (≈ 0.884 µM)
MIC [22]: 0.5 µg/mL (≈ 0.884 µM)
MIC [23]: 0.25 µg/mL (≈ 0.442 µM)
MIC [24]: 0.5 µg/mL (≈ 0.884 µM)
MIC [25]: 32 µg/mL (≈ 56.6 µM)
